In the test the test system is HeLa cells. Nature of the test: Inhibitory effects of compounds on HeLa cell proliferation in vitro. The test is classed as cell-based. To be noted: Homo sapiens; exponentially growing HeLa cells, incubated with test compound for 96 hours; concentration at 50% inhibition of cell growth. The method, then: The inhibitory effect of various compounds of formula (1) on HeLa cell proliferation in vitro was determined according to the method described by Sunkara et al. [J. Natl Cancer Instit. 70, 505-509 (1983)]. Exponentially growing HeLa cells were incubated in the presence or absence of various concentrations of test compounds for 96 hours. IC50 values were calculated which represent the test compound concentration at 50% inhibition of cell growth.

In brackets after ≈: the same amount, converted by molar mass.

In the case of `Nc1ccn([C@@H]2O[C@H](CO)[C@@H](O)/C2=C\F)c(=O)n1` [Compound A, (E)-2′-deoxy-2′-fluoromethylidene cytidine], the IC50 was in the range of 0.01 to 0.015 µg/mL (≈ 0.0389 to 0.0583 µM). `Nc1ccn([C@@H]2O[C@H](CO)[C@@H](O)/C2=C/F)c(=O)n1` [Compound B, (Z)-2′-deoxy-2′-fluoromethylidene cytidine]: the IC50 is 1 to 5 µg/mL (≈ 3.89 to 19.4 µM).

For the origin of these results see patent US20040063659A1, “Novel 2'-halomethylidene,2'-ethenylidene and 2'-ethynyl cytidine, uridine and guanosine derivatives” (Merrell Pharmaceuticals Inc., priority 1988, published 2004).
